Experimental data from US20120165376A1, “STABILIZED MICROBICIDAL COMPOSITION” (priority 2010, published 2012).
One block for each compound: values may come before it.

Legend:
Assay type in all cases: physicochemical
[1] = Storage stability of formulations having 20% DBNPA and 6% BNPD: oven at 45° C., loss after 28 days
Experimental: These formulations were prepared and placed in an oven at 45° C. and analyzed for loss of the biocides after 28 days.

[2] = Storage stability of formulations having 20% DBNPA, 6% BNPD and 1.25% CMI/MI (3:1): oven at 40° C., loss of biocides after 60 days; settings: 6% BNPD
Experimental: These formulations were prepared from salt-free CMI/MI biocide, except as otherwise indicated. They were placed in an oven at 40° C. and analyzed for loss of the biocides after 60 days.

[3] = Storage stability of formulations having 20% DBNPA and 0.25% CMI/MI (3:1): oven at 45° C., loss after 28 days
Experimental: These formulations were prepared, using salt-free CMI/MI and placed in an oven at 45° C. and analyzed for loss of the biocides after 28 days.

[4] = Storage stability of formulations having 10-20% DBNPA, without BNPD or CMI/MI: oven at 45° C., loss after 28 days
Experimental: These were prepared and placed in an oven at 45° C. and analyzed for loss of the biocides after 28 days. […]=diethylene glycol monomethyl ether.

[5] = glycerin 0%, water 20%, DPG 54, 20% DBNPA
[6] = glycerin 0%, water 20%, TetEG 54, 20% DBNPA
[7] = glycerin 10%, water 5%, DPG 60, 20% DBNPA
[8] = glycerin 10%, water 5%, TetEG 60, 20% DBNPA
[9] = glycerin 10%, water 10%, DPG 54, 20% DBNPA
[10] = glycerin 10%, water 10%, TetEG 54, 20% DBNPA
[11] = glycerin 20%, water 10%, DPG 44, 20% DBNPA
[12] = glycerin 20%, water 10%, TEG 44, 20% DBNPA
[13] = glycerin 20%, water 10%, TetEG 44, 20% DBNPA
[14] = glycerin 30%, water 5%, DPG 39, 20% DBNPA
[15] = glycerin 30%, water 5%, TetEG 39, 20% DBNPA
[16] = glycerin 30%, water 10%, DPG 34, 20% DBNPA
[17] = glycerin 30%, water 10%, TetEG 34, 20% DBNPA
[18] = glycerin 30%, water […]%, DPG 29, 20% DBNPA, result believed to be erroneous
[19] = glycerin 30%, water […]%, TetEG 29, 20% DBNPA
[20] = glycerin 0%, water 10%, TEG-mono-butyl ether 59.5%
[21] = glycerin 0%, water 20%, TEG 49.5%
[22] = glycerin 0%, water 20%, TEG-mono-butyl ether 49.5%
[23] = glycerin 0%, water 30%, TEG 39.5%
[24] = glycerin 0%, water 30%, TEG-mono-butyl ether 39.5%
[25] = glycerin 10%, water 10%, TEG 49.5%
[26] = glycerin 10%, water 20%, TEG-mono-butyl ether 39.5%
[27] = glycerin 10%, water 30%, TEG-mono-butyl ether 29.5%
[28] = glycerin 20%, water 10%, TEG 39.5%
[29] = glycerin 20%, water 20%, TEG 29.5%

- BNPD loss, % [1, 5]: 1.5%
- BNPD loss, % ([1]; glycerin 0%, water 20%, TEG 54, 20% DBNPA): 7%
- BNPD loss, % [1, 6]: 0%
- BNPD loss, % [1, 7]: 1%
- BNPD loss, % [1, 8]: 6%
- BNPD loss, % [1, 9]: 0.5%
- BNPD loss, % [1, 10]: 8.5%
- BNPD loss, % [1, 11]: 1.5%
- BNPD loss, % [1, 12]: 4%
- BNPD loss, % [1, 13]: 3%
- BNPD loss, % [1, 14]: 1.5%
- BNPD loss, % [1, 15]: 1.5%
- BNPD loss, % [1, 16]: 1%
- BNPD loss, % [1, 17]: 2%
- BNPD loss, % [1, 18]: 12.5^1%
- BNPD loss, % [1, 19]: 3.5%
SMILES: O=[N+]([O-])C(Br)(CO)CO [BNPD, 2-bromo-2-nitro-1,3-propanediol]
- BNPD loss, % ([2]; glycerin 0%, water 10%, TEG 59.5%): 3%
- BNPD loss, % [2, 20]: 0%
- BNPD loss, % [2, 21]: 1%
- BNPD loss, % [2, 22]: 0%
- BNPD loss, % [2, 23]: 3%
- BNPD loss, % [2, 24]: 3%
- BNPD loss, % [2, 25]: 3%
- BNPD loss, % ([2]; glycerin 10%, water 10%, TEG-mono-butyl ether 49.5%): 3%
- BNPD loss, % ([2]; glycerin 10%, water 20%, TEG 39.5%): 3%
- BNPD loss, % [2, 26]: 3%
- BNPD loss, % [2, 27]: 4%
- BNPD loss, % [2, 28]: 3%
- BNPD loss, % ([2]; glycerin 20%, water 10%, TEG-mono-butyl ether 39.5%): 3%
- BNPD loss, % [2, 29]: 4%

- DBNPA loss, % [1, 5]: 3.5%
- DBNPA loss, % [1, 6]: 2%
- DBNPA loss, % [1, 7]: 7%
- DBNPA loss, % [1, 8]: 5%
- DBNPA loss, % [1, 9]: 6%
- DBNPA loss, % [1, 10]: 7%
- DBNPA loss, % [1, 11]: 3%
- DBNPA loss, % [1, 12]: 7%
- DBNPA loss, % [1, 13]: 7%
- DBNPA loss, % [1, 14]: 2%
- DBNPA loss, % [1, 15]: 2.5%
- DBNPA loss, % [1, 16]: 3%
- DBNPA loss, % [1, 17]: 3%
- DBNPA loss, % [1, 18]: 14^1%
- DBNPA loss, % [1, 19]: 4.5%
- DBNPA loss, % ([3]; glycerin 0%, water 20%, DPG 59, 20% DBNPA, 0.25% CMI/MI (3:1)): 10%
- DBNPA loss, % ([3]; glycerin 0%, water 20%, TetEG 59, 20% DBNPA, 0.25% CMI/MI (3:1)): 4%
- DBNPA loss, % ([3]; glycerin 10%, water 5%, DPG 64, 20% DBNPA, 0.25% CMI/MI (3:1), result believed to be erroneous): 27^1%
- DBNPA loss, % ([3]; glycerin 10%, water 5%, TetEG 64, 20% DBNPA, 0.25% CMI/MI (3:1)): 2.5%
- DBNPA loss, % ([3]; glycerin 10%, water 10%, DPG 59, 20% DBNPA, 0.25% CMI/MI (3:1)): 7%
- DBNPA loss, % ([3]; glycerin 10%, water 10%, TetEG 59, 20% DBNPA, 0.25% CMI/MI (3:1)): 3.5%
- DBNPA loss, % ([3]; glycerin 20%, water 10%, DPG 49, 20% DBNPA, 0.25% CMI/MI (3:1)): 3.5%
- DBNPA loss, % ([3]; glycerin 20%, water 10%, TEG 49, 20% DBNPA, sample had 1% CMI/MI): 6%
- DBNPA loss, % ([3]; glycerin 20%, water 10%, TetEG 49, 20% DBNPA, 0.25% CMI/MI (3:1)): 3.5%
- DBNPA loss, % ([3]; glycerin 30%, water 5%, DPG 44, 20% DBNPA, 0.25% CMI/MI (3:1)): 6%
- DBNPA loss, % ([3]; glycerin 30%, water 5%, TetEG 44, 20% DBNPA, 0.25% CMI/MI (3:1)): 6%
- DBNPA loss, % ([3]; glycerin 30%, water 10%, DPG 39, 20% DBNPA, 0.25% CMI/MI (3:1)): 4%
- DBNPA loss, % ([3]; glycerin 30%, water 10%, TetEG 39, 20% DBNPA, 0.25% CMI/MI (3:1)): 2.5%
- DBNPA loss, % ([3]; glycerin 30%, water 20%, DPG 29, 20% DBNPA, 0.25% CMI/MI (3:1)): 4%
- DBNPA loss, % ([3]; glycerin 30%, water 20%, TetEG 29, 20% DBNPA, 0.25% CMI/MI (3:1)): 3.5%
- DBNPA loss, % ([3]; glycerin 30%, water […]%, DPG 34, 20% DBNPA, 0.25% CMI/MI (3:1)): 3.5%
- DBNPA loss, % ([3]; glycerin 30%, water […]%, TetEG 34, 20% DBNPA, 0.25% CMI/MI (3:1)): 3%
- DBNPA loss, % ([4]; glycerin 30%, water 5%, TEG 45, 20% DBNPA): 3^ %
- DBNPA loss, % ([4]; glycerin 45%, water 5%, TEG 30, 20% DBNPA): 3^ %
- DBNPA loss, % ([4]; glycerin 65%, water […]%, DEGMME 10, only 10% DBNPA): 95^1%
- DBNPA loss, % ([4]; glycerin 65%, water […]%, TEG 10, only 10% DBNPA): 3^1%
- DBNPA loss, % ([4]; glycerin 65%, water […]%, TetEG 10, only 10% DBNPA): 95^1%
SMILES: N#CC(Br)(Br)C(N)=O [DBNPA, 2,2-dibromo-3-nitrilopropionamide]
- DBNPA loss, % [2, 20]: 40%
- DBNPA loss, % [2, 21]: 10%
- DBNPA loss, % [2, 22]: 18%
- DBNPA loss, % [2, 23]: 16%
- DBNPA loss, % [2, 24]: 18%
- DBNPA loss, % [2, 25]: 6%
- DBNPA loss, % [2, 26]: 14%
- DBNPA loss, % [2, 27]: 18%
- DBNPA loss, % [2, 28]: 5%
- DBNPA loss, % [2, 29]: 14%
